Measured values as given in PubChem BioAssay (NCI).
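Assay format: 96-well plates, 48-hour exposure. The concentration for full growth arrest is given as TGI.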

Key:
Experiment in all cases: NCI-60 cell line screen, 48 h
[1] = tested on: HCT-15 colon
[2] = tested on: NCI-H23 lung
[3] = tested on: MDA-MB-231 breast
[4] = tested on: HCC-2998 colon
[5] = tested on: HL-60(TB) leukemia
[6] = tested on: T-47D breast
[7] = tested on: ACHN renal
[8] = tested on: UACC-257 melanoma
[9] = tested on: UO-31 renal
[10] = tested on: TK-10 renal
[11] = tested on: MDA-N
[12] = tested on: EKVX NSCLC
[13] = tested on: SF-295 CNS
[14] = tested on: SF-268 CNS
[15] = tested on: SNB-19 CNS
[16] = tested on: SF-539 CNS
[17] = tested on: RPMI-8226 leukemia
[18] = tested on: OVCAR-3 ovarian
[19] = tested on: SN12C renal
[20] = tested on: HT29 colon
[21] = tested on: RXF 393 renal
[22] = tested on: A549 NSCLC
[23] = tested on: LOX IMVI melanoma
[24] = tested on: HCT-116 colon
[25] = tested on: UACC-62 melanoma
[26] = tested on: OVCAR-5 ovarian
[27] = tested on: COLO 205 colon
[28] = tested on: K-562 leukemia
[29] = tested on: OVCAR-4 ovarian
[30] = tested on: PC-3 prostate
[31] = tested on: KM12 colon
[32] = tested on: NCI-H460 lung
[33] = tested on: SW-620 colon
[34] = tested on: SK-MEL-5 melanoma
[35] = tested on: IGROV1 ovarian
[36] = tested on: CCRF-CEM leukemia
[37] = tested on: NCI/ADR-RES ovarian
[38] = tested on: SK-MEL-28 melanoma
[39] = tested on: SNB-75 CNS
[40] = tested on: 786-0 renal
[41] = tested on: HS 578T breast
[42] = tested on: NCI-H226 lung
[43] = tested on: MDA-MB-435
[44] = tested on: M14 melanoma
[45] = tested on: SK-MEL-2 melanoma
[46] = tested on: U251 CNS
[47] = tested on: HOP-62 NSCLC
[48] = tested on: SK-OV-3 ovarian
[49] = tested on: OVCAR-8 ovarian
[50] = tested on: A498 renal
[51] = tested on: MOLT-4 leukemia
[52] = tested on: DU-145 prostate
[53] = tested on: NCI-H522 lung

CN1N=C(c2ccncc2)OC1c1cccc(C(F)(F)F)c1 (stereo not drawn)
TGI [1]: > 100 µM | TGI [2]: > 100 µM | TGI [3]: > 100 µM | TGI [4]: > 100 µM | TGI [5]: > 100 µM | TGI [6]: > 100 µM | TGI [7]: > 100 µM | TGI [8]: > 100 µM | TGI [9]: > 100 µM | TGI [10]: > 100 µM | TGI [11]: > 100 µM | TGI [12]: > 100 µM | TGI [13]: > 100 µM | TGI [14]: > 100 µM | TGI [15]: > 100 µM | TGI [16]: 65.8 µM | TGI [17]: > 100 µM | TGI [18]: > 100 µM | TGI [19]: > 100 µM | TGI [20]: > 100 µM | TGI [21]: > 100 µM | TGI [22]: > 100 µM | TGI [23]: > 100 µM | TGI [24]: > 100 µM | TGI [25]: > 100 µM | TGI [26]: > 100 µM | TGI [27]: > 100 µM | TGI [28]: > 100 µM | TGI [29]: > 100 µM | TGI [30]: > 100 µM | TGI [31]: > 100 µM | TGI [32]: > 100 µM | TGI [33]: > 100 µM | TGI [34]: > 100 µM | TGI [35]: > 100 µM | TGI [36]: > 100 µM | TGI [37]: > 100 µM | TGI [38]: > 100 µM | TGI [39]: 87.3 µM | TGI [40]: > 100 µM | TGI [41]: > 100 µM | TGI [42]: > 100 µM | TGI [43]: > 100 µM | TGI [44]: > 100 µM | TGI [45]: > 100 µM | TGI [46]: > 100 µM | TGI [47]: > 100 µM | TGI [48]: > 100 µM | TGI [49]: > 100 µM | TGI [50]: > 100 µM | TGI [51]: > 100 µM | TGI [52]: > 100 µM | TGI [53]: > 100 µM
